Read-outs that look alike come from different tables or passages of the source.

Assay [1] concerns SUDHL4 cells. Description: Alamar Blue cytotoxicity study. Type of assay: cell-based, human. The conditions noted are these: for IC50: Homo sapiens; for Combination Index (Chou-Talalay): 120 h. Here is the method:
Cells were incubated with 0.25, 0.5, 1, 2.5 or 5 μg/ml of Humalutin in cell culture flasks and incubated at 37° C./5% CO2. After 18-20 hours cells were washed and resuspended in fresh medium. Cell bound activity after washing was measured using a calibrated gamma detector (Cobra II auto-gamma detector, Packard Instrument Company, Meriden, Conn., USA). Cell concentration and viability was also measured after washing using Guava ViaCount Cell Dispersal Reagent for Flow Cytometry (Merck GaA, Darmstadt, Germany) and measured in a Guava EasyCyte 12HT (Merck KGaA, Darmstadt, Germany) to determine how well the cells survived the incubation. Cells were seeded in 96 well plates. […]
(§1) Cells were treated with either Humalutin, venetoclax or a combination of both and seeded into 96 well-plates. At each time point after treatment, cells were incubated with Alamar Blue (Thermo Fisher, DALL1100) for 4 hours and fluorescence measurements were performed using a multiplate reader Fluoroskan ascent FL to assess cell proliferation and viability. All experiments were done in duplicates using 2 samples in each experiment. Data were normalized to the untreated controls.
Cells were incubated with either 0, 0.5 μg/ml or 1 μg/ml Humalutin and the same procedure as described before for treatment with Humalutin alone and venetoclax alone was followed.
The Chou-Talalay model was used for synergy calculations using the Compusyn software. R (goodness of fit) was calculated for the individual treatments and should be over 0.90 in in vitro culture experiments in order to use with confidence the calculated combination index (CI). The CI is an indication of synergy: 0-0.9 is considered synergy. Synergysm grading was used as described in WO2006004917A2.
(§2) Cells were incubated with 0.25, 0.5, 1, 2.5 or 5 μg/ml of Humalutin in cell culture flasks and incubated at 37° C./5% CO2. After 18-20 hours cells were washed and resuspended in fresh medium. Cell bound activity after washing was measured using a calibrated gamma detector (Cobra II auto-gamma detector, Packard Instrument Company, Meriden, Conn., USA). Cell concentration and viability were also measured after washing using Guava ViaCount Cell Dispersal Reagent for Flow Cytometry (Merck GaA, Darmstadt, Germany) and measured in a Guava EasyCyte 12HT (Merck KGaA, Darmstadt, Germany) to determine how well the cells survived the incubation. Cells were seeded in 96 well plates. Alamar blue viability measurements were performed 120 h after seeding.
Cells were incubated with either 0 (control), 0.5 μg/ml or 1 μg/ml Humalutin for 18 to 20 hours. Cells were then washed and resuspended in fresh medium.
(The colour change of resazurin is a common sign of viable cells or microbes.)

Assay [2] concerns SUDHL-6 cells. Description: Alamar Blue cytotoxicity study. It is filed as cell-based, human. To be noted: for Combination Index (Chou-Talalay): 120 h. Here is the method:
as §1, §2
Cells were incubated with either 0 (control), 0.5 μg/ml or 1 μg/ml Humalutin for 18 to 20 hours. Cells were then washed and resuspended in fresh medium. Cell bound activity after washing was measured using a calibrated gamma detector (Cobra II auto-gamma detector, Packard Instrument Company, Meriden, Conn., USA). Cell concentration and viability were also measured after washing using Guava ViaCount Cell Dispersal Reagent for Flow Cytometry (Merck GaA, Darmstadt, Germany) and measured in a Guava EasyCyte 12HT (Merck KGaA, Darmstadt, Germany) to determine how well the cells survived the incubation. […] Cytotoxic effect was measured using Alamar blue cell viability assay.
The Chou-Talalay model was used for synergy calculations using the Compusyn software. R (goodness of fit) was calculated for the individual treatments and should be over 0.90 in in vitro culture experiments in order to use the calculated combination index (CI) with confidence. The CI is an indication of synergy: 0-0.9 is considered synergy. Synergism grading was used as described in Table 13, WO2006004917A2.

Assay [3] deals with Ramos cells. Description: Immunoreactive fraction, one point modified Lindmo method. It is filed as binding, human. To be noted: 75 million Ramos cells/ml. Here is the method: The immunoreactivity of the radioimmunoconjugates was measured using Ramos cells and a one point modified Lindmo method. The cell concentration used was 75 million cells/ml. The immunoreactivity of the conjugates was higher than 70%.
The immunoreactivity of the radioimmunoconjugates was measured using Ramos cells and a one point modified Lindmo method (1, 2). The cell concentration used was 75 million cells/ml. The immunoreactivity of the conjugates was higher than 70%.
The immunoreactivity of the radioimmunoconjugates was measured using Ramos cells and a one point modified Lindmo method. The cell concentration used was 75 million cells/ml. The immunoreactivity of the conjugates was higher than 70%).

In assay [4] the test system is CDK1 and its phosphorylations, p345-Chk1, Wee-1, Myt-1, CDK7 in Rec-1 cells. Description: Protein expression by Western blot. It is filed as cell-based, human. Here is the method:
Protein expression was assessed in 1×10^6 Ramos, DOHH2 or Rec-1 cells/mL grown in 12-well plates and exposed for 18 h to 0 and 6 MBq/mL of ^177Lu-lilotomab. Cells were harvested at 0, 2 h, 18 h, 1 d, 2 d and 3 d of RIT. At each time point, cells were rinsed and incubated in RIPA buffer (Santa Cruz) at 4° C. for 30 minutes. Cells were centrifuged and supernatant (containing proteins) were collected. Proteins were electrophoresed through SDS-PAGE using 12% poly-acrylamide gels and electrotransferred onto nitrocellulose membranes. Blots were incubated with anti-CDK1, anti-p-CDK1(Tyr15) (clone 10A11), anti-p-CDK1(Thr14), anti-p-CDK1(Thr161), anti-CDK7, anti-Wee-1 (clone D10D2), anti-Myt-1, anti-p-CHK1 (Ser345) and anti-human GAPDH (1/1000, Cell Signaling Technologies, Leiden, The Netherlands) primary antibodies. Blot were washed and incubated with horseradish peroxidase-conjugated anti-mouse Ig (115-036-072, Jackson ImmunoResearch) or with horseradish peroxidase-conjugated anti-rabbit Ig (7074, Cell Signaling). Signal detection of immunoblots was carried out using the enhanced chemiluminescence protocol according to the manufacturer's instructions (Clarity™ Western ECL blotting substrates, 1705061, BioRad). PXi analyser (Ozyme) was used to measure levels of protein expression.
For orientation: In western blotting, separated proteins are transferred to a membrane and probed.

In general, IC50 refers to the point on the concentration scale where inhibition reaches its midpoint. `CC1(C)CCC(CN2CCN(c3ccc(C(=O)NS(=O)(=O)c4ccc(NCC5CCOCC5)c([N+](=O)[O-])c4)c(Oc4cnc5[nH]ccc5c4)c3)CC2)=C(c2ccc(Cl)cc2)C1` [venetoclax]: the IC50 in assay [1] (SU-DHL-4, read-out: IC50 at 120 h, SUDHL-4, 120 h incubation after seeding) was 2.42 µM; in assay [1] (SU-DHL-4, SUDHL4, 72 h incubation after seeding, read-out: IC50), 3.66 µM; in assay [2] (Homo sapiens, SU-DHL-6, read-out: IC50 at 120 h, SUDHL-6, 120 h incubation after seeding), 1160 nM. For the same molecule, the “Combination Index (Chou-Talalay)” value was 2.43 in assay [1] (SUDHL-4, drug 10 μM + Humalutin 0.5 μg/ml); 0.09 in assay [1] (SUDHL-4, drug 10 μM + Humalutin 1 μg/ml); 3.77 in assay [1] (SUDHL-4, drug 40 μM + Humalutin 0.5 μg/ml); 0.11 in assay [1] (SUDHL-4, drug 40 μM + Humalutin 1 μg/ml); 0.50 in assay [1] (SUDHL-4, drug 80 μM + Humalutin 0.5 μg/ml); 0.06 in assay [1] (SUDHL-4, drug 80 μM + Humalutin 1 μg/ml). Also, the “Combination Index (Chou-Talalay)” value in assay [1] (SUDHL-4, drug 100 μM + Humalutin 0.5 μg/ml) turned out to be 0.83; in assay [1] (SUDHL-4, drug 100 μM + Humalutin 1 μg/ml), 0.02; in assay [1] (SUDHL-4, venetoclax 0.25 + Humalutin 0.5 μg/ml), 0.01; in assay [1] (SUDHL-4, venetoclax 0.25 + Humalutin 1 μg/ml), 0.06; in assay [1] (SUDHL-4, venetoclax 0.5 + Humalutin 0.5 μg/ml) it was 0.003; in assay [1] (SUDHL-4, venetoclax 0.5 + Humalutin 1 μg/ml) it was 0.01. Also, the “Combination Index (Chou-Talalay)” value in assay [1] (SUDHL-4, venetoclax 1 + Humalutin 0.5 μg/ml) is given as 0.01; in assay [1] (SUDHL-4, venetoclax 1 + Humalutin 1 μg/ml), 0.09; in assay [1] (SUDHL-4, venetoclax 2.5 + Humalutin 0.5 μg/ml), 0.02; in assay [1] (SUDHL-4, venetoclax 2.5 + Humalutin 1 μg/ml), 0.12; in assay [2] (SUDHL-6, venetoclax 0.25 + Humalutin 0.5 μg/ml), 0.63; in assay [2] (SUDHL-6, venetoclax 0.25 + Humalutin 1 μg/ml), 0.82. Besides, the “Combination Index (Chou-Talalay)” value in assay [2] (SUDHL-6, venetoclax 0.5 + Humalutin 0.5 μg/ml) came to 0.14; in assay [2] (SUDHL-6, venetoclax 0.5 + Humalutin 1 μg/ml), 0.28; in assay [2] (SUDHL-6, venetoclax 1 + Humalutin 0.5 μg/ml) it was 0.71; in assay [2] (SUDHL-6, venetoclax 1 + Humalutin 1 μg/ml), 0.41; in assay [2] (SUDHL-6, venetoclax 2.5 + Humalutin 0.5 μg/ml), 0.47; in assay [2] (SUDHL-6, venetoclax 2.5 + Humalutin 1 μg/ml), 0.41.

B1: Lutetium-177 [^177Lu]-lilotomab satetraxetan (conjugate, chains of the INN, looked up)
VH: EIQLQQSGPELVKPGASVKVSCKASGYSFTDYNMYWVKQSHGKSLEWIGYIDPYNGDTTYNQKFKGKATLTVDKSSSTAFIHLNSLTSEDSAVYYCARSPYGHYAMDYWGQGTSVTVSS
VL: DIVMTQSHKLLSTSVGDRVSITCKASQDVSTAVDWYQQKPGQSPKLLINWASTRHTGVPDRFTGSGSGTDYTLTISSMQAEDLALYYCRQHYSTPFTFGSGTKLEIK
modifications: 177Lu satetraxetan chelator conjugate
Regarding B1, in assay [3], the Immunoreactivity entry is on record as “higher than 70%”. The “Level of phosphorylated CHK1 (Ser345)” value in assay [4] (Rec-1) is “remained stable until 18 h before progressively decreasing”. In addition, in assay [4] (Rec-1, 6 MBq/mL for 18 h), the “Activating pThr161 CDK1 phosphorylation” value was “undetectable” and the CDK1 level result is “quite stable”. In addition, in assay [4] (Rec-1, 18 h after treatment), the “Expression of Myt-1” value was “decreased”. Also, the “Expression of Wee-1” value in assay [4] (Rec-1, between 18 and 48 h) is “comparable in control and treated”. In addition, the “Levels of CDK7” value in assay [4] (Rec-1, compared with Ramos cells) is given as “stable or increased”.

Source of the values: patent US20210106703A1, “RADIOIMMUNOCONJUGATES IN COMBINATION WITH OTHER DRUGS AS TREATMENT AGAINST NHL” (Nordic Nanovector ASA, priority 2017, published 2021).
